Literature values, collected in publication PMC6062831 (ACS Central Science, 2018).
Where two headings read alike, the source gives them in different places.

What was measured:
Escherichia coli GUS = conditions: cited from earlier work
human GUS ortholog = conditions: cited from earlier work

Row | SMILES | Ki (Escherichia coli GUS; read-out: Ki against Escherichia coli GUS) | inhibition of human GUS ortholog (human GUS ortholog) | Ki (Escherichia coli GUS; read-out: Ki against E. coli GUS)
1 | O=C(O)[C@@H](O)[C@H]1OC(=O)[C@H](O)[C@H]1O [D-glucaro-1,4-lactone] | 19 µM | potent inhibitors | –
2 | O=C(O)[C@@H]1[C@@H](O)[C@H](O)[C@@]2(O)CC[C@@H]1N2 [uronic-noeurostegine] | – | potent inhibitors | 0.06 µM
